pIC50: −log10 of the molar value.
Test system: 994946-033-R-J1-PDC complex spheroid viability
Assay: Anticancer human tumor 994946-033-R-J1-PDC patient-derived melanoma cell line growth inhibition [POLQ]
Settings: for pIC50: curve of first compound; for viability, T/C: stronger effect = lower value
How it was run: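 PDC + HUVEC + MSC complex spheroids; POLQ inhibitors ± partner drugs; top conc. at/near clinical Cmax, else 10 microM (SN-38 1 microM), half-log dilutions; 37 degrees C, 5% CO2.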

[1] = second compound 0.0316 µM, first compound 0.000316 µM
[2] = second compound 0.0316 µM, first compound 0.001 µM
[3] = second compound 0.0316 µM, first compound 0.00316 µM
[4] = second compound 0.0316 µM, first compound 0.01 µM
[5] = second compound 0.0316 µM, first compound 0.0316 µM
[6] = second compound 0.0316 µM, first compound 0.1 µM
[7] = second compound 0.1 µM, first compound 0.000316 µM
[8] = second compound 0.1 µM, first compound 0.001 µM
[9] = second compound 0.1 µM, first compound 0.00316 µM
[10] = second compound 0.1 µM, first compound 0.01 µM
[11] = second compound 0.1 µM, first compound 0.0316 µM
[12] = second compound 0.1 µM, first compound 0.1 µM
[13] = second compound 0.316 µM, first compound 0.000316 µM
[14] = second compound 0.316 µM, first compound 0.001 µM
[15] = second compound 0.316 µM, first compound 0.00316 µM
[16] = second compound 0.316 µM, first compound 0.01 µM
[17] = second compound 0.316 µM, first compound 0.0316 µM
[18] = second compound 0.316 µM, first compound 0.1 µM
[19] = second compound 1 µM, first compound 0.000316 µM
[20] = second compound 1 µM, first compound 0.001 µM
[21] = second compound 1 µM, first compound 0.00316 µM
[22] = second compound 1 µM, first compound 0.01 µM
[23] = second compound 1 µM, first compound 0.0316 µM
[24] = second compound 1 µM, first compound 0.1 µM
[25] = second compound 3.16 µM, first compound 0.000316 µM
[26] = second compound 3.16 µM, first compound 0.001 µM
[27] = second compound 3.16 µM, first compound 0.00316 µM
[28] = second compound 3.16 µM, first compound 0.01 µM
[29] = second compound 3.16 µM, first compound 0.0316 µM
[30] = second compound 3.16 µM, first compound 0.1 µM
[31] = second compound 10 µM, first compound 0.000316 µM
[32] = second compound 10 µM, first compound 0.001 µM
[33] = second compound 10 µM, first compound 0.00316 µM
[34] = second compound 10 µM, first compound 0.01 µM
[35] = second compound 10 µM, first compound 0.0316 µM
[36] = second compound 10 µM, first compound 0.1 µM
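Note: spheroids exposed to drugs for 7 days.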
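Throughout, for viability, T/C: 100% = DMSO vehicle treated spheroids.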

Structure (SMILES): Cn1ncnc1[C@H]1c2n[nH]c(=O)c3cc(F)cc(c23)N[C@@H]1c1ccc(F)cc1 + COC1C(OC(N)=O)C(O)C(Oc2ccc3c(O)c(NC(=O)c4ccc(O)c(CC=C(C)C)c4)c(=O)oc3c2C)OC1(C)C
- pIC50 (second compound 0.0316 µM): < 7.00
- pIC50 (second compound 0.1 µM): < 7.00
- pIC50 (second compound 0.316 µM): < 7.00
- pIC50 (second compound 1 µM): < 7.00
- pIC50 (second compound 3.16 µM): < 7.00
- pIC50 (second compound 10 µM): < 7.00
- viability, T/C [1]: 92.5%
- viability, T/C [2]: 96.1%
- viability, T/C [3]: 123%
- viability, T/C [4]: 93.6%
- viability, T/C [5]: 71.5%
- viability, T/C [6]: 63.2%
- viability, T/C [7]: 97.7%
- viability, T/C [8]: 81.9%
- viability, T/C [9]: 93.4%
- viability, T/C [10]: 94.6%
- viability, T/C [11]: 72.8%
- viability, T/C [12]: 55.6%
- viability, T/C [13]: 93.7%
- viability, T/C [14]: 101%
- viability, T/C [15]: 93.3%
- viability, T/C [16]: 76.6%
- viability, T/C [17]: 66.3%
- viability, T/C [18]: 77.7%
- viability, T/C [19]: 91.4%
- viability, T/C [20]: 103%
- viability, T/C [21]: 104%
- viability, T/C [22]: 106%
- viability, T/C [23]: 59.9%
- viability, T/C [24]: 66.4%
- viability, T/C [25]: 106%
- viability, T/C [26]: 81.2%
- viability, T/C [27]: 117%
- viability, T/C [28]: 82.3%
- viability, T/C [29]: 70.4%
- viability, T/C [30]: 65.2%
- viability, T/C [31]: 89.5%
- viability, T/C [32]: 102%
- viability, T/C [33]: 110%
- viability, T/C [34]: 79.5%
- viability, T/C [35]: 78.4%
- viability, T/C [36]: 71.8%

Structure (SMILES): CCc1cc2c(N3CCc4c(cc(Cn5ccnc5)cc4-c4cn(C)nc4C(F)(F)F)C3=O)ccnc2c(OC)n1 + COC1C(OC(N)=O)C(O)C(Oc2ccc3c(O)c(NC(=O)c4ccc(O)c(CC=C(C)C)c4)c(=O)oc3c2C)OC1(C)C
- pIC50 (second compound 0.0316 µM): < 5.00
- pIC50 (second compound 0.1 µM): < 5.00
- pIC50 (second compound 0.316 µM): < 5.00
- pIC50 (second compound 1 µM): < 5.00
- pIC50 (second compound 3.16 µM): < 5.00
- pIC50 (second compound 10 µM): < 5.00
- viability, T/C [5]: 98.9%
- viability, T/C [6]: 72.2%
- viability, T/C (second compound 0.0316 µM, first compound 0.316 µM): 61.1%
- viability, T/C (second compound 0.0316 µM, first compound 1 µM): 73.3%
- viability, T/C (second compound 0.0316 µM, first compound 3.16 µM): 63.3%
- viability, T/C (second compound 0.0316 µM, first compound 10 µM): 70%
- viability, T/C [11]: 92.7%
- viability, T/C [12]: 77.8%
- viability, T/C (second compound 0.1 µM, first compound 0.316 µM): 96.2%
- viability, T/C (second compound 0.1 µM, first compound 1 µM): 78.8%
- viability, T/C (second compound 0.1 µM, first compound 3.16 µM): 61.2%
- viability, T/C (second compound 0.1 µM, first compound 10 µM): 81.2%
- viability, T/C [17]: 100%
- viability, T/C [18]: 98.3%
- viability, T/C (second compound 0.316 µM, first compound 0.316 µM): 70.6%
- viability, T/C (second compound 0.316 µM, first compound 1 µM): 66.1%
- viability, T/C (second compound 0.316 µM, first compound 3.16 µM): 86.4%
- viability, T/C (second compound 0.316 µM, first compound 10 µM): 63.7%
- viability, T/C [23]: 91.6%
- viability, T/C [24]: 75.7%
- viability, T/C (second compound 1 µM, first compound 0.316 µM): 94.1%
- viability, T/C (second compound 1 µM, first compound 1 µM): 85.3%
- viability, T/C (second compound 1 µM, first compound 3.16 µM): 68.1%
- viability, T/C (second compound 1 µM, first compound 10 µM): 69%
- viability, T/C [29]: 91.9%
- viability, T/C [30]: 77.3%
- viability, T/C (second compound 3.16 µM, first compound 0.316 µM): 81.7%
- viability, T/C (second compound 3.16 µM, first compound 1 µM): 73.8%
- viability, T/C (second compound 3.16 µM, first compound 3.16 µM): 74.3%
- viability, T/C (second compound 3.16 µM, first compound 10 µM): 54%
- viability, T/C [35]: 91.7%
- viability, T/C [36]: 77.6%
- viability, T/C (second compound 10 µM, first compound 0.316 µM): 67.1%
- viability, T/C (second compound 10 µM, first compound 1 µM): 81.2%
- viability, T/C (second compound 10 µM, first compound 3.16 µM): 64.3%
- viability, T/C (second compound 10 µM, first compound 10 µM): 58.9%

Structure (SMILES): Cn1ncnc1[C@H]1c2n[nH]c(=O)c3cc(F)cc(c23)N[C@@H]1c1ccc(F)cc1 + Nc1ccc(C#CCN(C(=O)Cc2ncc(C(F)(F)F)cc2C(F)(F)F)c2ccc(F)cc2)nn1
- pIC50 (second compound 0.0316 µM): < 7.00
- pIC50 (second compound 0.1 µM): < 7.00
- pIC50 (second compound 0.316 µM): < 7.00
- pIC50 (second compound 1 µM): < 7.00
- pIC50 (second compound 3.16 µM): < 7.00
- pIC50 (second compound 10 µM): < 7.00
- viability, T/C [1]: 98.5%
- viability, T/C [2]: 99.3%
- viability, T/C [3]: 79.2%
- viability, T/C [4]: 91.6%
- viability, T/C [5]: 86.8%
- viability, T/C [6]: 54.3%
- viability, T/C [7]: 101%
- viability, T/C [8]: 71.5%
- viability, T/C [9]: 69%
- viability, T/C [10]: 93.8%
- viability, T/C [11]: 59.2%
- viability, T/C [12]: 65.9%
- viability, T/C [13]: 110%
- viability, T/C [14]: 48.7%
- viability, T/C [15]: 92.3%
- viability, T/C [16]: 70.8%
- viability, T/C [17]: 77.3%
- viability, T/C [18]: 51%
- viability, T/C [19]: 65.3%
- viability, T/C [20]: 93%
- viability, T/C [21]: 71.5%
- viability, T/C [22]: 72.4%
- viability, T/C [23]: 59.2%
- viability, T/C [24]: 55%
- viability, T/C [25]: 116%
- viability, T/C [26]: 69.4%
- viability, T/C [27]: 74.5%
- viability, T/C [28]: 62%
- viability, T/C [29]: 68.6%
- viability, T/C [30]: 79.7%
- viability, T/C [31]: 77.7%
- viability, T/C [32]: 91%
- viability, T/C [33]: 87.3%
- viability, T/C [34]: 87%
- viability, T/C [35]: 67.7%
- viability, T/C [36]: 57.2%

Source: PubChem BioAssay AID1963827 (Molecular Pharmacology Branch, DTP, NCI, 2024)
